Results as given in patent US20090036450A1, “PYRAZOLE COMPOUNDS AND USE THEREOF” (JAPAN TOBACCO, INC., priority 2006, published 2009).
Counter-ions that a name gives are not always drawn.

What follows are molecules tested against T1, human liver glycogen phosphorylase (Homo sapiens, UniProt P06737) (assay: Liver glycogen phosphorylase activity, forward reaction system (NADPH detection at 340 nm)). Conditions: enzyme inhibitory activity against recombinant human liver glycogen phosphorylase (Sf9 cell lysate), room temperature, 75 minutes.
T1 construct: made in house; host or cells: Sf9 insect cells (suspension of disrupted cells, diluted in BES buffer, not purified)
T1 sequence (P06737 1-847): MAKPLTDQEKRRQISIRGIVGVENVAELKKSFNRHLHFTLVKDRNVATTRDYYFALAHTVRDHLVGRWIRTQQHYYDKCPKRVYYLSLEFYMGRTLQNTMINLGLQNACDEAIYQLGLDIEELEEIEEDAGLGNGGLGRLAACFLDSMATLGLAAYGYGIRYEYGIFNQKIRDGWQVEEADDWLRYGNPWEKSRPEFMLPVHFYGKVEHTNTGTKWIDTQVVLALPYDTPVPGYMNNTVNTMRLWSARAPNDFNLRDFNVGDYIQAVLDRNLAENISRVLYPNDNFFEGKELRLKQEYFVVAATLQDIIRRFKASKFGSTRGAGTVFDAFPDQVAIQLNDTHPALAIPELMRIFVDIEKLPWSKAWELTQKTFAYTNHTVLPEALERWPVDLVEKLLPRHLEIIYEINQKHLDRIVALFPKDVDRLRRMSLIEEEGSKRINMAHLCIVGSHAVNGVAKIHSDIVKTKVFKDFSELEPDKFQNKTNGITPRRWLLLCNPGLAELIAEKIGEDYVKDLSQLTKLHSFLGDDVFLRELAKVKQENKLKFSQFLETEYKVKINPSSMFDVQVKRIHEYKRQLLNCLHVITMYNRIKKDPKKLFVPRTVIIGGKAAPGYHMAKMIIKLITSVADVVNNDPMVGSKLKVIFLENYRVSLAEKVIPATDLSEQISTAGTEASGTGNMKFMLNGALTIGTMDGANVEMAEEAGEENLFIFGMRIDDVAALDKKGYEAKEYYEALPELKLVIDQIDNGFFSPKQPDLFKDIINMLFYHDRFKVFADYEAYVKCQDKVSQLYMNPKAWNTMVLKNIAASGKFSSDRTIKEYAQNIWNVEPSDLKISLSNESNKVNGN
Assay type: biochemical
Summary of the method: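 Recombinant human liver glycogen phosphorylase from Sf9 lysate, run in forward direction with glycogen and phosphate substrate plus glucose, coupled via phosphoglucomutase/G6PDH to NADPH formation. BES buffer pH 6.8, room temperature, 75 min; A340 change minus blank gives activity. IC50 from percent inhibition vs DMSO control.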

IC50 | SMILES
< 0.1 µM | COc1ccc(-c2nnsc2CNC(=O)c2cc(NC(=O)c3cc(F)c(F)cc3Cl)[nH]n2)cc1 [Example 1-69, 5-(2-chloro-4,5-difluoro-benzoylamino)-1H-pyrazole-3-carboxylic acid [4-(4-methoxy-phenyl)-[1,2,3]thiadiazol-5-ylmethyl]-amide]
< 0.1 µM | Cc1noc(-c2noc(C)c2CNC(=O)c2cc(NC(=O)c3cc(F)c(F)cc3Cl)[nH]n2)n1 [Example 1-70, 5-(2-chloro-4,5-difluoro-benzoylamino)-1H-pyrazole-3-carboxylic acid [5-methyl-3-(3-methyl-[1,2,4]oxadiazol-5-yl)-isoxazol-4-ylmethyl]-amide]
< 0.1 µM | Cc1noc(-c2nc(C)oc2CNC(=O)c2cc(NC(=O)c3cc(F)c(F)cc3Cl)[nH]n2)n1 [Example 1-71, 5-(2-chloro-4,5-difluoro-benzoylamino)-1H-pyrazole-3-carboxylic acid [2-methyl-4-(3-methyl-[1,2,4]oxadiazol-5-yl)-oxazol-5-ylmethyl]-amide]
< 0.1 µM | O=C(NCc1nnc(-c2cccc(F)c2)o1)c1cc(NC(=O)c2cc(F)c(F)cc2Cl)[nH]n1 [Example 1-72, 5-(2-chloro-4,5-difluoro-benzoylamino)-1H-pyrazole-3-carboxylic acid [5-(3-fluoro-phenyl)-[1,3,4]oxadiazol-2-ylmethyl]-amide]
< 0.1 µM | O=C(NCc1nnc(Cc2ccccc2)o1)c1cc(NC(=O)c2cc(F)c(F)cc2Cl)[nH]n1 [Example 1-74, 5-(2-chloro-4,5-difluoro-benzoylamino)-1H-pyrazole-3-carboxylic acid (5-benzyl-[1,3,4]oxadiazol-2-ylmethyl)-amide]
< 0.1 µM | Cn1cccc1-c1nnc(CNC(=O)c2cc(NC(=O)c3cc(F)c(F)cc3Cl)[nH]n2)o1 [Example 1-75, 5-(2-chloro-4,5-difluoro-benzoylamino)-1H-pyrazole-3-carboxylic acid [5-(1-methyl-1H-pyrrol-2-yl)-[1,3,4]oxadiazol-2-ylmethyl]-amide]
< 0.1 µM | Cc1cc(-c2nnc(CNC(=O)c3cc(NC(=O)c4cc(F)c(F)cc4Cl)[nH]n3)o2)[nH]n1 [Example 1-76, 5-(2-chloro-4,5-difluoro-benzoylamino)-1H-pyrazole-3-carboxylic acid [5-(5-methyl-2H-pyrazol-3-yl)-[1,3,4]oxadiazol-2-ylmethyl]-amide]
0.1 to 0.3 µM | O=C(NCc1nnc(-c2cc3ccccc3s2)o1)c1cc(NC(=O)c2cc(F)c(F)cc2Cl)[nH]n1 [Example 1-77, 5-(2-chloro-4,5-difluoro-benzoylamino)-1H-pyrazole-3-carboxylic acid (5-benzo[b]thiophen-2-yl-[1,3,4]oxadiazol-2-ylmethyl)-amide]
< 0.1 µM | Cc1nnsc1-c1nnc(CNC(=O)c2cc(NC(=O)c3cc(F)c(F)cc3Cl)[nH]n2)o1 [Example 1-78, 5-(2-chloro-4,5-difluoro-benzoylamino)-1H-pyrazole-3-carboxylic acid [5-(4-methyl-[1,2,3]thiadiazol-5-yl)-[1,3,4]oxadiazol-2-ylmethyl]-amide]
< 0.1 µM | Cc1ncc(CNC(=O)c2cc(NC(=O)c3cc(F)c(F)cc3Cl)[nH]n2)c(-c2cccc(F)c2)n1 [Example 1-79, 5-(2-chloro-4,5-difluoro-benzoylamino)-1H-pyrazole-3-carboxylic acid [4-(3-fluoro-phenyl)-2-methyl-pyrimidin-5-ylmethyl]-amide]
< 0.1 µM | Cc1nc(C2CC2)ncc1CNC(=O)c1cc(NC(=O)c2cc(F)c(F)cc2Cl)[nH]n1 [Example 1-80, 5-(2-chloro-4,5-difluoro-benzoylamino)-1H-pyrazole-3-carboxylic acid (2-cyclopropyl-4-methyl-pyrimidin-5-ylmethyl)-amide]
< 0.1 µM | O=C(NCc1cncnc1C1CC1)c1cc(NC(=O)c2cc(F)c(F)cc2Cl)[nH]n1 [Example 1-81, 5-(2-chloro-4,5-difluoro-benzoylamino)-1H-pyrazole-3-carboxylic acid (4-cyclopropyl-pyrimidin-5-ylmethyl)-amide]
< 0.1 µM | O=C(NCc1cnc(C2CC2)nc1C1CC1)c1cc(NC(=O)c2cc(F)c(F)cc2Cl)[nH]n1 [Example 1-82, 5-[2-chloro-4,5-difluoro-benzoylamino)-1H-pyrazole-3-carboxylic acid (2,4-dicyclopropyl-pyrimidin-5-ylmethyl)-amide hydrochloride]
< 0.1 µM | Cc1ncc(CNC(=O)c2cc(NC(=O)c3cc(F)c(F)cc3Cl)[nH]n2)c(-c2oc(C)nc2C)n1 [Example 1-83, 5-(2-chloro-4,5-difluoro-benzoylamino)-1H-pyrazole-3-carboxylic acid [4-(2,4-dimethyl-oxazol-5-yl)-2-methyl-pyrimidin-5-ylmethyl]-amide]
< 0.1 µM | Cc1cc(-c2nnsc2CNC(=O)c2cc(NC(=O)c3cc(F)c(F)cc3Cl)[nH]n2)c(C)o1 [Example 1-84, 5-(2-chloro-4,5-difluoro-benzoylamino)-1H-pyrazole-3-carboxylic acid [4-(2,5-dimethyl-furan-3-yl)-[1,2,3]thiadiazol-5-ylmethyl]-amide]
< 0.1 µM | O=C(NCc1nnc(-c2cccc(Cl)c2)s1)c1cc(NC(=O)c2cc(F)c(F)cc2Cl)[nH]n1 [Example 1-85]
< 0.1 µM | CCc1nc(Cc2nc(C)c(CNC(=O)c3cc(NC(=O)c4cc(F)c(F)cc4Cl)[nH]n3)o2)n[nH]1 [Example 1-86, 5-(2-chloro-4,5-difluoro-benzoylamino)-1H-pyrazole-3-carboxylic acid [2-(5-ethyl-1H-[1,2,4]thiazol-3-ylmethyl)-4-methyl-oxazol-5-ylmethyl]-amide hydrochloride]
< 0.1 µM | O=C(NCc1n[nH]c(-c2ccc(Cl)cc2)n1)c1cc(NC(=O)c2cc(F)c(F)cc2Cl)[nH]n1 [Example 1-87, 5-(2-chloro-4,5-difluoro-benzoylamino)-1H-pyrazole-3-carboxylic acid [5-(4-chloro-phenyl)-1H-[1,2,4]triazol-3-ylmethyl]-amide]
< 0.1 µM | COc1ccc(Cc2nc(CNC(=O)c3cc(NC(=O)c4cc(F)c(F)cc4Cl)[nH]n3)n[nH]2)cc1OC [Example 1-88, 5-(2-chloro-4,5-difluoro-benzoylamino)-1H-pyrazole-3-carboxylic acid [5-(3,4-dimethoxy-benzyl)-1H-[1,2,4]triazol-3-ylmethyl]-amide]
< 0.1 µM | CCOC(=O)c1nc(C)oc1CNC(=O)c1cc(NC(=O)c2cc(F)c(F)cc2C)[nH]n1 [Example 2-1, 5-(4,5-difluoro-2-methyl-benzoylamino)-1H-pyrazole-3-carboxylic acid (4-ethoxycarbonyl-2-methyl-oxazol-5-ylmethyl)-amide]
< 0.1 µM | O=C(NCc1ccc(C(=O)O)o1)c1cc(NC(=O)c2cc(F)c(F)cc2Cl)[nH]n1 [Example 3-1, 5-(2-chloro-4,5-difluoro-benzoylamino)-1H-pyrazole-3-carboxylic acid (2-carboxy-furan-5-ylmethyl)-amide]
< 0.1 µM | Cc1nc(C(=O)O)sc1CNC(=O)c1cc(NC(=O)c2cc(F)c(F)cc2Cl)[nH]n1 [Example 3-2, sodium 5-({[5-(2-chloro-4,5-difluoro-benzoylamino)-1H-pyrazole-3-carbonyl]-amino}-methyl)-4-methyl-thiazole-2-carboxylate]
0.1 to 0.3 µM | O=C(O)c1cc(CNC(=O)c2cc(NC(=O)c3cc(F)c(F)cc3Cl)[nH]n2)on1 [Example 3-3, 5-(2-chloro-4,5-difluoro-benzoylamino)-1H-pyrazole-3-carboxylic acid (3-carboxy-isoxazol-5-ylmethyl)-amide]
< 0.1 µM | Cc1nc(COC(=O)c2ccccc2)c(CNC(=O)c2cc(NC(=O)c3cc(F)c(F)cc3Cl)[nH]n2)o1 [Example 3-5, 5-(2-chloro-4,5-difluoro-benzoylamino)-1H-pyrazole-3-carboxylic acid (4-benzoyloxymethyl-2-methyl-oxazol-5-ylmethyl)-amide]
< 0.1 µM | Cc1nc(C(=O)O)c(CNC(=O)c2cc(NC(=O)c3cc(F)c(F)cc3Cl)[nH]n2)o1 [Example 3-6, 5-(2-chloro-4,5-difluoro-benzoylamino)-1H-pyrazole-3-carboxylic acid (4-carboxy-2-methyl-oxazol-5-ylmethyl)-amide]
< 0.1 µM | Cc1nc(COCC(=O)O)oc1CNC(=O)c1cc(NC(=O)c2cc(F)c(F)cc2Cl)[nH]n1 [Example 3-7, 5-(2-chloro-4,5-difluoro-benzoylamino)-1H-pyrazole-3-carboxylic acid (2-carboxymethoxymethyl-4-methyl-oxazol-5-ylmethyl)-amide]
